Data taken from patent US9688653B2, “Ethoxyphenyl thienyl compounds and methods for the treatment of bacterial infections” (Duke University, priority 2013, dated 2017).

How the values were obtained:
panel of 68 receptors [1] = biological target: panel of 68 receptors (Homo sapiens, UniProt Q99720); details: Sigma σ1, hum, 10 μM
panel of 68 receptors [2] = biological target: panel of 68 receptors (Rattus norvegicus, UniProt Q02294); details: Calcium Channel N-Type, rat, 10 μM
panel of 68 receptors [3] = biological target: panel of 68 receptors (Homo sapiens, UniProt Q01959); details: Transporter, Dopamine (DAT), hum, 10 μM
panel of 68 receptors [4] = biological target: panel of 68 receptors (Homo sapiens, UniProt P25100); details: Adrenergic α1D, hum, 10 μM
panel of 68 receptors [5] = biological target: panel of 68 receptors (Homo sapiens, UniProt P41145); details: Opiate κ(OP2, KOP), hum, 10 μM
panel of 68 receptors [6] = biological target: panel of 68 receptors (Homo sapiens, UniProt Q9Y5N1); details: Histamine H3, hum, 10 μM
panel of 68 receptors [7] = biological target: panel of 68 receptors (Homo sapiens, UniProt P49146); details: Neuropeptide Y Y2, hum, 10 μM
panel of 68 receptors [8] = biological target: panel of 68 receptors (Homo sapiens, UniProt P21728); details: Dopamine D1, hum, 10 μM
panel of 68 receptors [9] = biological target: panel of 68 receptors (Homo sapiens, UniProt P08908); details: Serotonin (5-Hydroxytryptamine) 5-HT1A, hum, 10 μM
panel of 68 receptors [10] = biological target: panel of 68 receptors (Homo sapiens, UniProt P08913); details: Adrenergic α2A, hum, 10 μM
panel of 68 receptors [11] = biological target: panel of 68 receptors (Homo sapiens, UniProt P21554); details: Cannabinoid CB1, hum, 10 μM
panel of 68 receptors [12] = biological target: panel of 68 receptors (Homo sapiens, UniProt P30411); details: Bradykinin B2, hum, 10 μM
panel of 68 receptors [13] = biological target: panel of 68 receptors (Homo sapiens, UniProt P31645); details: Transporter, Serotonin (5-Hydroxytryptamine) (SERT), hum, 10 μM
panel of 68 receptors [14] = biological target: panel of 68 receptors (Homo sapiens, UniProt P35372); details: Opiate μ(OP3, MOP), hum, 10 μM
panel of 68 receptors [15] = biological target: panel of 68 receptors (Homo sapiens, UniProt Q9Y271); details: Leukotriene, Cysteinyl CysLT1, hum, 10 μM
panel of 68 receptors [16] = biological target: panel of 68 receptors (Homo sapiens, UniProt P35367); details: Histamine H1, hum, 10 μM
panel of 68 receptors [17] = biological target: panel of 68 receptors (Homo sapiens, UniProt P11229); details: Muscarinic M1, hum, 10 μM
panel of 68 receptors [18] = biological target: panel of 68 receptors (Homo sapiens, UniProt P48039); details: Melatonin MT1, hum, 10 μM
panel of 68 receptors [19] = biological target: panel of 68 receptors (Rattus norvegicus, UniProt P15207); details: Androgen (Testosterone) AR, rat, 10 μM
panel of 68 receptors [20] = biological target: panel of 68 receptors (Homo sapiens, UniProt Q9UBS5); details: GABAB1A, hum, 10 μM
panel of 68 receptors [21] = biological target: panel of 68 receptors (Homo sapiens, UniProt P25101); details: Endothelin ETA, hum, 10 μM
panel of 68 receptors [22] = biological target: panel of 68 receptors (Homo sapiens, UniProt P07550); details: Adrenergic β2, hum, 10 μM
panel of 68 receptors [23] = biological target: panel of 68 receptors (Homo sapiens, UniProt P41143); details: Opiate δ1, (OP1, DOP), hum, 10 μM
panel of 68 receptors [24] = biological target: panel of 68 receptors (Homo sapiens, UniProt P41595); details: Serotonin (5-Hydroxytryptamine) 5-HT2B, hum, 10 μM
panel of 68 receptors [25] = biological target: panel of 68 receptors (Homo sapiens, UniProt Q12809); details: Potassium Channel hERG, hum, 10 μM
panel of 68 receptors [26] = biological target: panel of 68 receptors (Homo sapiens, UniProt P02708); details: Nicotinic Acetylcholine α1, Bungarotoxin, hum, 10 μM
panel of 68 receptors [27] = biological target: panel of 68 receptors (Homo sapiens, UniProt P25021); details: Histamine H2, hum, 10 μM
panel of 68 receptors [28] = biological target: panel of 68 receptors (Homo sapiens, UniProt P25105); details: Platelet Activating Factor (PAF), hum, 10 μM
panel of 68 receptors [29] = biological target: panel of 68 receptors (Homo sapiens, UniProt P25103); details: Tachykinin NK1, hum, 10 μM
panel of 68 receptors [30] = biological target: panel of 68 receptors (Homo sapiens, UniProt P24530); details: Endothelin ETB, hum, 10 μM
panel of 68 receptors [31] = biological target: panel of 68 receptors (Homo sapiens, UniProt P04150); details: Glucocorticoid, hum, 10 μM
panel of 68 receptors [32] = biological target: panel of 68 receptors (Homo sapiens, UniProt P0DMS8); details: Adenosine A3, hum, 10 μM
panel of 68 receptors [33] = biological target: panel of 68 receptors (Homo sapiens, UniProt P20309); details: Muscarinic M3, hum, 10 μM
panel of 68 receptors [34] = biological target: panel of 68 receptors (Homo sapiens, UniProt P35408); details: Prostanoid EP4, hum, 10 μM
Sequence of panel of 68 receptors (Homo sapiens, UniProt P35408) (P35408 whole entry): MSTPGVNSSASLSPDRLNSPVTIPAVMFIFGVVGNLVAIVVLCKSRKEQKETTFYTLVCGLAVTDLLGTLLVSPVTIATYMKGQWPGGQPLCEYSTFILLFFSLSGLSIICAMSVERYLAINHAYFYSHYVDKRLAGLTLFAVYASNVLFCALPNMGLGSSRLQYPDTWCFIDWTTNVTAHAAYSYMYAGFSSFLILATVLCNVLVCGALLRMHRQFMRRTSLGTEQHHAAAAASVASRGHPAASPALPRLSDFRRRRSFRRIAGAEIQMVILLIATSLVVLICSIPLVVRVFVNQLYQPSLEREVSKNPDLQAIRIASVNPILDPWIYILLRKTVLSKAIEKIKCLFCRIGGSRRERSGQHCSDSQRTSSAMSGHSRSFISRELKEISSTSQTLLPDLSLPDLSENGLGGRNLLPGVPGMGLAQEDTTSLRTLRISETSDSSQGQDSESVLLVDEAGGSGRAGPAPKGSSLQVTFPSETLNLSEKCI

Sequence of panel of 68 receptors (Homo sapiens, UniProt P24530) (P24530 27-442): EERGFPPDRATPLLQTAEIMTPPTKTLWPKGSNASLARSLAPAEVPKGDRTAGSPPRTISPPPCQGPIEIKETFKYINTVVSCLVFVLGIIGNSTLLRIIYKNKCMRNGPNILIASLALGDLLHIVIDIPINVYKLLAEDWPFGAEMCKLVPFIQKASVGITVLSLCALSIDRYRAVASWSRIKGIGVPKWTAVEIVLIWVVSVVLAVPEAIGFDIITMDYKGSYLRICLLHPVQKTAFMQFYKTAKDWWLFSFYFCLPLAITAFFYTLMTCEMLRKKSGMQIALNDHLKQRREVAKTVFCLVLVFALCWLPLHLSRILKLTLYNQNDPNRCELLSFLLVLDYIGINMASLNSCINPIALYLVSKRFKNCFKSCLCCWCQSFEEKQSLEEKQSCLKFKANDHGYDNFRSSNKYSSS
Sequence of panel of 68 receptors (Homo sapiens, UniProt P48039) (P48039 whole entry): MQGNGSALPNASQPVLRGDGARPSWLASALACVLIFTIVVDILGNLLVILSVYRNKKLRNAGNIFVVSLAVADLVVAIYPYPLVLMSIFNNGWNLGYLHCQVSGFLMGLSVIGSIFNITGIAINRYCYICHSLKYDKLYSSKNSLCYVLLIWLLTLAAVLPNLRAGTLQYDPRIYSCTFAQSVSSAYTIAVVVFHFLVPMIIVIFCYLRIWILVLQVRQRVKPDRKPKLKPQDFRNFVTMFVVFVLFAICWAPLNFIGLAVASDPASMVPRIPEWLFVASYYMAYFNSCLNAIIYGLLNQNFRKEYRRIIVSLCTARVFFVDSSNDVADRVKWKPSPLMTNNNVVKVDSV
Sequence of panel of 68 receptors (Homo sapiens, UniProt P0DMS8) (P0DMS8 whole entry): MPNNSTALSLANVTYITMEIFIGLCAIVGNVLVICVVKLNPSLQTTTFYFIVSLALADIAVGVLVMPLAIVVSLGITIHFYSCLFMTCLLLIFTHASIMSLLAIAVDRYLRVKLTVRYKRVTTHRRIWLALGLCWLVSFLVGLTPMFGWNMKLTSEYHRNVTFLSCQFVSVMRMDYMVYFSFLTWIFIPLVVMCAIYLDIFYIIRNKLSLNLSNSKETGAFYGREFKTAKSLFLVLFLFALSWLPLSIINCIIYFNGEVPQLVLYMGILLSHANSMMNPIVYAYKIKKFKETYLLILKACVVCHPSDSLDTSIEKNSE
Sequence of panel of 68 receptors (Homo sapiens, UniProt P35367) (P35367 whole entry): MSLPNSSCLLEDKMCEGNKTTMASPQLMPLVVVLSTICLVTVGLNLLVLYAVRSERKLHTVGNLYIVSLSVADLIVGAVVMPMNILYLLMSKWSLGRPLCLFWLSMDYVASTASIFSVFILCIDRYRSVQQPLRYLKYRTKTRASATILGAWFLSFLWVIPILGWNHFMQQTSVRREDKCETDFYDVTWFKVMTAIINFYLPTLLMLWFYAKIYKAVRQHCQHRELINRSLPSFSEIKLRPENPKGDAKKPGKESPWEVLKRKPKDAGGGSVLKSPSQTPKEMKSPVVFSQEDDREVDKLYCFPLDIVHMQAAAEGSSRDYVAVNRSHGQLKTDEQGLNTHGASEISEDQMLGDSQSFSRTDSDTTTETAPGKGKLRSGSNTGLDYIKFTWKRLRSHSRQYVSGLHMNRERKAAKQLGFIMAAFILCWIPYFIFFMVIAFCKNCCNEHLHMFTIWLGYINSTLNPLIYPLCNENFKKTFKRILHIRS
Sequence of panel of 68 receptors (Rattus norvegicus, UniProt P15207) (P15207 whole entry S389L): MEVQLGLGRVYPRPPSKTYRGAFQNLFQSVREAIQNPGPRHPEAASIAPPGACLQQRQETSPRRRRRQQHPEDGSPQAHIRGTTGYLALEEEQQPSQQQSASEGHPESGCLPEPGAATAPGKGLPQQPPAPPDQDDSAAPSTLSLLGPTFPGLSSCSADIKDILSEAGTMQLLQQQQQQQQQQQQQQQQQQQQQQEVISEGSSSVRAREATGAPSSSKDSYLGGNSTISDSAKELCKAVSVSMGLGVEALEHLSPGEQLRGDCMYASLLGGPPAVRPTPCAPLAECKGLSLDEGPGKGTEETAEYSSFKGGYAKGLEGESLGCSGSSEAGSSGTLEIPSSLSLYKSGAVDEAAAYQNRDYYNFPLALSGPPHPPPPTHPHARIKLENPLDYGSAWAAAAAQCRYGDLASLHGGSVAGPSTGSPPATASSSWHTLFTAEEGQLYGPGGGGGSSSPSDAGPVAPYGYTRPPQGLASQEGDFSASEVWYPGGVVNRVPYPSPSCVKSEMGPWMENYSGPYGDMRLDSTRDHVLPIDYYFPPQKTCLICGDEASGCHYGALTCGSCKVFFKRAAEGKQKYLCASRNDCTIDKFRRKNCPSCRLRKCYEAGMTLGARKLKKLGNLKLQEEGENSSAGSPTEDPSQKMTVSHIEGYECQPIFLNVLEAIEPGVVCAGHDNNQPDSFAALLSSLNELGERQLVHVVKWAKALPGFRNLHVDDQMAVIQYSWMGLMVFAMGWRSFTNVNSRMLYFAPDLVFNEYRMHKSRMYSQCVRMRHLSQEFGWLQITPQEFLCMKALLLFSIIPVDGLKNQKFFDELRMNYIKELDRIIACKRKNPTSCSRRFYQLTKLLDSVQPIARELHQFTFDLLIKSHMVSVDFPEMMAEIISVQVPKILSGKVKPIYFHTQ
Sequence of panel of 68 receptors (Homo sapiens, UniProt P21728) (P21728 whole entry): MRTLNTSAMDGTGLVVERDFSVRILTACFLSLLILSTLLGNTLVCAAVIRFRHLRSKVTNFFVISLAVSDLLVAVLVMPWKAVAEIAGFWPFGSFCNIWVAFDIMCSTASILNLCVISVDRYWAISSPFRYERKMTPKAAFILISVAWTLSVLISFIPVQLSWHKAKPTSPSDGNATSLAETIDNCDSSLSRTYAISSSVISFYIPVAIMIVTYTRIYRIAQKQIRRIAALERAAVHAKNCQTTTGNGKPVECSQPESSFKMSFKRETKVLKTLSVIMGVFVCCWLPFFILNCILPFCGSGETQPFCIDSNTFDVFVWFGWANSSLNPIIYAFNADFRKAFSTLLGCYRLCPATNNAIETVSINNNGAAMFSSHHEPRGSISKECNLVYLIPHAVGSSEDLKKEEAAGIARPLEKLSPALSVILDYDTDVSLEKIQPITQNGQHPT
Sequence of panel of 68 receptors (Homo sapiens, UniProt P07550) (P07550 whole entry): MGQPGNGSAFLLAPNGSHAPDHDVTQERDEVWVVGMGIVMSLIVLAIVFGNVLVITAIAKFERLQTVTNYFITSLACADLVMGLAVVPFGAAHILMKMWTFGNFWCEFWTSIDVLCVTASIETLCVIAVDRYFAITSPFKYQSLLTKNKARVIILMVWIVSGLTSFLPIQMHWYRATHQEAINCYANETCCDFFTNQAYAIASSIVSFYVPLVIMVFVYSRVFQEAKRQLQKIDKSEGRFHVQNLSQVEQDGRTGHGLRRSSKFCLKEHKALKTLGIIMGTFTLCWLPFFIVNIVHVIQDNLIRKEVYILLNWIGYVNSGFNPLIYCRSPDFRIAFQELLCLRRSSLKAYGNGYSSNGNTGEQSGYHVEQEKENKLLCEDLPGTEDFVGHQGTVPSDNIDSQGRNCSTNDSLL
Sequence of panel of 68 receptors (Homo sapiens, UniProt Q01959) (Q01959 whole entry): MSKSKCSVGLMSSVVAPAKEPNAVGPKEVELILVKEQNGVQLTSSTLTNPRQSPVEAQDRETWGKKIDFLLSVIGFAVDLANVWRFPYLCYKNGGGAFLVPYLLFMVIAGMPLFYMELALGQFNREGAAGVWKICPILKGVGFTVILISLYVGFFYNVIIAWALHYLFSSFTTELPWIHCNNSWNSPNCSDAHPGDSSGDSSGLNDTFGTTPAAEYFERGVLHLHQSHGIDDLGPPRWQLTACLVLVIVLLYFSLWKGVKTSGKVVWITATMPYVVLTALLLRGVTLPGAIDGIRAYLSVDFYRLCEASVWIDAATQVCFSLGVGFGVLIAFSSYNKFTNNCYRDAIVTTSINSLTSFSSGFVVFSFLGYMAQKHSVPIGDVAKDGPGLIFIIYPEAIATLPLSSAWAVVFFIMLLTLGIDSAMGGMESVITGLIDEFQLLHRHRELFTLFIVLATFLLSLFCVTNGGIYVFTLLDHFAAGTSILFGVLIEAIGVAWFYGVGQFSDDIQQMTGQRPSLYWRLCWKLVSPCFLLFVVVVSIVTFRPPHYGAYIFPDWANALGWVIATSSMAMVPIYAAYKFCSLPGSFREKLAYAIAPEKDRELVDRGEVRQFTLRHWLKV
Sequence of panel of 68 receptors (Homo sapiens, UniProt P25103) (P25103 whole entry): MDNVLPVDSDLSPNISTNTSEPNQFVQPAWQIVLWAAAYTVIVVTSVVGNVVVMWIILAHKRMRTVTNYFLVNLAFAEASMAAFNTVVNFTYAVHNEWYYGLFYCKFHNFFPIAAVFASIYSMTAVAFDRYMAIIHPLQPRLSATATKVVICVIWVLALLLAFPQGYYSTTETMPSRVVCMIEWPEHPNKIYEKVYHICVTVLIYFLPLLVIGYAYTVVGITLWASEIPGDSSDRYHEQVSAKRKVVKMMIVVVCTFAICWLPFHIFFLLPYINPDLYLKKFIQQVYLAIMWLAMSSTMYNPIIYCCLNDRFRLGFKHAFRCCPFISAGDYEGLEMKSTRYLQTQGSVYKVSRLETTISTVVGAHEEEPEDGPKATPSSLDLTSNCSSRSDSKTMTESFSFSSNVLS

CCOc1ccc(-c2cc(NC(=O)c3c(F)cccc3F)c(C(=O)O)s2)cc1 [KUC107784N-02]
% Inh. (panel of 68 receptors [1]): 5%
% Inh. (panel of 68 receptors [2]): −16%
% Inh. (panel of 68 receptors [3]): 8%
% Inh. (panel of 68 receptors [4]): 2%
% Inh. (panel of 68 receptors [5]): 14%
% Inh. (panel of 68 receptors [6]): 14%
% Inh. (panel of 68 receptors [7]): −3%
% Inh. (panel of 68 receptors [8]): 5%
% Inh. (panel of 68 receptors [9]): 4%
% Inh. (panel of 68 receptors [10]): −1%
% Inh. (panel of 68 receptors [11]): 13%
% Inh. (panel of 68 receptors [12]): 6%
% Inh. (panel of 68 receptors [13]): 8%
% Inh. (panel of 68 receptors [14]): 3%
% Inh. (panel of 68 receptors [15]): 0%
% Inh. (panel of 68 receptors [16]): 2%
% Inh. (panel of 68 receptors [17]): 1%
% Inh. (panel of 68 receptors [18]): 3%
% Inh. (panel of 68 receptors [19]): −5%
% Inh. (panel of 68 receptors [20]): 5%
% Inh. (panel of 68 receptors [21]): 8%
% Inh. (panel of 68 receptors [22]): 3%
% Inh. (panel of 68 receptors [23]): 0%
% Inh. (panel of 68 receptors [24]): 11%
% Inh. (panel of 68 receptors [25]): −11%
% Inh. (panel of 68 receptors [26]): 8%
% Inh. (panel of 68 receptors [27]): 2%
% Inh. (panel of 68 receptors [28]): 4%
% Inh. (panel of 68 receptors [29]): 7%
% Inh. (panel of 68 receptors [30]): 3%
% Inh. (panel of 68 receptors [31]): −2%
% Inh. (panel of 68 receptors [32]): 29%
% Inh. (panel of 68 receptors [33]): 14%
% Inh. (panel of 68 receptors [34]): −4%
